Experimental findings from ChEMBL document CHEMBL1134901, “Synthesis and activity of novel HIV protease inhibitors with improved potency against multiple PI-resistant viral strains” (Bioorg Med Chem Lett, 2002) are described below.

Structures are written as SMILES.

Data set [1] deals with Human immunodeficiency virus 1. The data set is described as follows: In vitro inhibition of spread of viral infection using 4X mutant virus. It counts as functional. Particulars: read-out: CIC95.
In data set [2] the test system is MT4. The data set is described as follows: Concentration required to inhibit the spread of viral infection in MT-4 human T-lymphoid cells infected by the NL4-3 virus. The format is functional. To be noted: read-out: CIC95.
Data set [3] concerns the target T1, Human immunodeficiency virus type 1 protease (Human immunodeficiency virus 1, UniProt Q72874). As to the kind of experiment: Inhibitory concentration against wild-type HIV-1 protease.
Data set [4] in a line: Maximum concentration in dogs administered perorally (5 mg/kg) and intravenously (2 mg/kg). It counts as ADME, organism-based, Canis lupus familiaris. To be noted: dog, in vivo, po.
Data set [5] can be described thus: Intrinsic clearance in human liver microsomes. The format is ADME, Microsome.
Data set [6] in a line: Plasma clearance in dogs administered perorally (5 mg/kg) and intravenously (2 mg/kg). To be noted: dog, iv, read-out: Clp. The format is ADME, organism-based, Canis lupus familiaris.
The subject of data set [7] is Human immunodeficiency virus 1. As to the kind of experiment: Potency against PI-resistant viral isolate construct HIV K-60C. The format is functional. To be noted: read-out: CIC95.
For data set [8], the system named is Human immunodeficiency virus 1. The data set is described as follows: Potency against PI-resistant viral isolate construct HIV Q-60C. The format is functional. To be noted: read-out: CIC95.
In data set [9] the test system is Human immunodeficiency virus 1. The data set is described as follows: Potency against PI-resistant virus HIV 4X. It counts as functional. To be noted: read-out: CIC95.
Data set [10] deals with Human immunodeficiency virus 1. The data set is described as follows: Potency against PI-resistant virus HIV NL-4. It counts as functional. Particulars: read-out: CIC95.
Data set [11] deals with Cytochrome P450 2D6 (Homo sapiens, UniProt P10635). The data set is described as follows: Inhibition of cytochrome P450 2D6. The format is ADME.
Cytochrome P450 2D6, sequence (P10635 whole entry): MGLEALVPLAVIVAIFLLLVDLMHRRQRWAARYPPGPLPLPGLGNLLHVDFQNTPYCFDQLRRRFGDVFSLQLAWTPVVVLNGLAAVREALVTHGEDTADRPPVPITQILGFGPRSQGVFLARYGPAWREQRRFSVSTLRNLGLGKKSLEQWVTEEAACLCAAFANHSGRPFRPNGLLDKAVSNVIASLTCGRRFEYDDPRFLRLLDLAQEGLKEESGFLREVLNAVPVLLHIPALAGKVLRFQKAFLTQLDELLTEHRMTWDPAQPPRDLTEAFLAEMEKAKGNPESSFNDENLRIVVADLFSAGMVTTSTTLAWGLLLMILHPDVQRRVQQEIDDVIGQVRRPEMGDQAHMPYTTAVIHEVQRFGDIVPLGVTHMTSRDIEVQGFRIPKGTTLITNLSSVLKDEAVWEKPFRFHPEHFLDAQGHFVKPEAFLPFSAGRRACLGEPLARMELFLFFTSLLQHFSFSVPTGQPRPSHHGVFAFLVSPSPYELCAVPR
In data set [12] the target is Cytochrome P450 3A4 (Homo sapiens, UniProt P08684). As to the kind of experiment: Inhibition of cytochrome P450 3A4. The format is ADME.
Cytochrome P450 3A4, sequence (P08684 whole entry): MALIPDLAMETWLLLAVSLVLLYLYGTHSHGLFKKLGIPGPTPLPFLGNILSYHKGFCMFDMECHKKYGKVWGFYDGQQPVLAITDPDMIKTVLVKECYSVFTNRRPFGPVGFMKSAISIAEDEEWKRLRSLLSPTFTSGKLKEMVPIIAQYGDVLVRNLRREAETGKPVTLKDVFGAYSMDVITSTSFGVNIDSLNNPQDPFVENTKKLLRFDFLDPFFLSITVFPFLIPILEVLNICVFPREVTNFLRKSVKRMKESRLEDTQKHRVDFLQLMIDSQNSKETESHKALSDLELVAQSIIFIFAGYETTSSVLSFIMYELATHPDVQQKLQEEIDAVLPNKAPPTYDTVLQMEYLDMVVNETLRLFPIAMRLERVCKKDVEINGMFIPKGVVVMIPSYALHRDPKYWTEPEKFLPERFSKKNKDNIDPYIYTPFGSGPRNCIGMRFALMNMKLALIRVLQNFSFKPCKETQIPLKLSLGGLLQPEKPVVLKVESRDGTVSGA
Data set [13] concerns Human immunodeficiency virus 1. As to the kind of experiment: Potency against PI-resistant viral isolate construct HIV V-18C. The format is functional. Particulars: read-out: CIC95.
Data set [14] deals with T1, Human immunodeficiency virus type 1 protease. The data set is described as follows: Inhibitory concentration required to inhibit cleavage of a substrate by thewild-type HIV-1 protease enzyme.
A short description of data set [15]: Bioavailability in dog (dose 5 mg/kg p.o. and 2 mg/kg i.v.). The format is ADME, organism-based, Canis lupus familiaris. To be noted: in vivo, po.
Data set [16] can be described thus: Half life in dogs administered perorally (5 mg/kg) and intravenously (2 mg/kg). It counts as ADME, organism-based, Canis lupus familiaris. Particulars: dog, in vivo.
Data set [17] is described as follows: Area under curve in dogs administered perorally (5 mg/kg) and intravenously (2 mg/kg). To be noted: dog, in vivo. The format is ADME, organism-based, Canis lupus familiaris.

A word on the IC50: it is the midpoint of a concentration-inhibition curve. Low readings indicate greater potency, high ones weaker potency. What is called Cmax is the peak of the concentration-time curve. Usually CLint scaled stands for a measure of how fast metabolising enzymes remove a compound, apart from limits set by blood flow. Higher therefore signals faster metabolism. One may read the bioavailability as dose-corrected exposure relative to a reference, in per cent. Usually half-life stands for how long it takes for the measured level to halve. Low values mean fast loss, high ones slow loss. Usually AUC stands for the area under the concentration-time curve, a measure of exposure.

With `CC(C)CNC(=O)[C@@H]1CN(C(C)(C)c2cc3cnccc3o2)CCN1C[C@@H](O)C[C@@H](Cc1ccccc1)C(=O)N[C@H]1c2ccccc2OC[C@H]1O`, the IC95 amounted to 125 nM in data set [1] and 15 nM in [2]. Moreover, the IC50 in data set [3] is 0.4 nM.

Turning to `CC(C)(C)CNC(=O)[C@@H]1CN(C(C)(C)c2cc3cnccc3o2)CCN1C[C@@H](O)C[C@@H](Cc1ccccc1)C(=O)N[C@H]1c2ccccc2OC[C@H]1O`, the values for the IC95 in data set [1] and in data set [2] were 500 nM and 31 nM, respectively. Moreover, the concentration for half-maximal inhibition (IC50) in data set [3] came out at 1.16 nM.

On to `CCNC(=O)[C@@H]1CN(C(C)(C)c2cc3cnccc3o2)CCN1C[C@@H](O)C[C@@H](Cc1ccccc1)C(=O)N[C@H]1c2ccccc2OC[C@H]1O`, for which the IC95 in data set [1] was 62 nM; in [2] it was 31 nM. Moreover, half-maximal inhibition in data set [3] (IC50) required 0.61 nM.

Take `CC(C)(c1cc2cnccc2o1)N1CCN(C[C@@H](O)C[C@@H](Cc2ccccc2)C(=O)N[C@H]2c3ccccc3OC[C@H]2O)[C@H](C(=O)NCC(F)(F)C(F)(F)F)C1`: the values for the IC95 in [1] and in data set [2] were 62 nM and not above 8 nM, respectively. Further, in data set [3], the IC50 was 0.14 nM.

Consider `CC(C)(C)NC(=O)[C@@H]1CN(C(C)(C)c2cc3cnccc3o2)CCN1C[C@@H](O)C[C@@H](Cc1ccccc1)C(=O)N[C@H]1c2ccccc2OC[C@H]1O`, for which, in [4], the highest level (Cmax) was 8.8 µM. This compound also yielded an intrinsic clearance (CLint scaled) in data set [5] of 34 mL/min/kg. The clearance in [6] turned out to be 14.2 mL/min/kg. Besides, the IC95 in [1] is 31 nM; in [7], 500 nM; in data set [8], 125 nM; in data set [9] it was 16 nM; in data set [10], 9.2 nM; in data set [2] it was not above 8 nM. In [13], the IC95 came out at 125 nM. The IC50 in [11] amounted to 2430 nM; in data set [12] it was 310 nM; in data set [3], 0.08 nM.

In the case of `CC(C)(c1cc2cnccc2o1)N1CCN(C[C@@H](O)C[C@@H](Cc2ccccc2)C(=O)N[C@H]2c3ccccc3OC[C@H]2O)[C@H](C(=O)NCc2ccccc2)C1`, the IC95 in [1] amounted to 250 nM; in data set [2], 125 nM. This compound registered an IC50 in [3] of 2.19 nM.

With `CC(C)(c1cc2cnccc2o1)N1CCN(C[C@@H](O)C[C@@H](Cc2ccccc2)C(=O)N[C@H]2c3ccccc3OC[C@H]2O)[C@H](C(=O)NCC2CC2)C1`, the IC95 in data set [1] was 125 nM; in data set [2], 46 nM. Besides, it took 0.5 nM to reach half-maximal inhibition in data set [3] (IC50).

Take `CC(C)(C)NC(=O)[C@@H]1CN(Cc2cccnc2)CCN1C[C@@H](O)C[C@@H](Cc1ccccc1)C(=O)N[C@H]1c2ccccc2C[C@H]1O`: the IC95 was more than 1000 nM in [7]; more than 1000 nM in [8]; 400 nM in [9]; 50 nM in data set [10]; more than 1000 nM in data set [13].

Turning to `CC(C)(c1cc2cnccc2o1)N1CCN(C[C@@H](O)C[C@@H](Cc2ccccc2)C(=O)N[C@H]2c3ccccc3OC[C@H]2O)[C@H](C(=O)NCc2cccs2)C1`, the IC95 is 125 nM in data set [1] and 94 nM in data set [2]. Besides, in data set [14], the IC50 turned out to be 0.65 nM.

On to `CC(C)(c1cc2cnccc2o1)N1CCN(C[C@@H](O)C[C@@H](Cc2ccccc2)C(=O)N[C@H]2c3ccccc3OC[C@H]2O)[C@H](C(=O)NCC(F)(F)F)C1`, for which the bioavailability in [15] came out at 65%. Also, the half-life in data set [16] worked out at 52 min. The Cmax in data set [4] stood at 17 µM. The AUC in [17] was 18.8 µM·h. This compound also came in with a CLint scaled in data set [5] of 22 mL/min/kg. In addition, the clearance in [6] was determined as 4.01 mL/min/kg. Also, the IC95 in [1] is not above 8 nM; in data set [7], 250 nM; in data set [8], 62 nM; in data set [9] it was not above 8 nM; in data set [10], not above 8 nM; in [2] it was not above 8 nM. Also, the IC95 in [13] worked out at 62 nM. In addition, the results for the IC50 in [11], in data set [12] and in data set [3] were 520 nM, 30 nM and 0.07 nM, respectively.

Regarding `O=C(N[C@H]1c2ccccc2C[C@H]1O)[C@H](Cc1ccccc1)C[C@H](O)CN1CCN(Cc2cccnc2)C[C@H]1C(=O)NCC(F)(F)F`, the IC95 was more than 1000 nM in [7]; 62 nM in [8]; 125 nM in data set [9]; 62 nM in [10]; 500 nM in data set [13].

Take `CC(C)(c1cc2cnccc2o1)N1CCN(C[C@@H](O)C[C@@H](Cc2ccccc2)C(=O)N[C@H]2c3ccccc3OC[C@H]2O)[C@H](C(=O)NC2CC2)C1`: the IC95 came out at 250 nM in data set [1] and 62 nM in data set [2]. Moreover, the IC50 in data set [3] came out at 0.6 nM.

With `CC(C)(c1cc2cnccc2o1)N1CCN(C[C@@H](O)C[C@@H](Cc2ccccc2)C(=O)N[C@H]2c3ccccc3OC[C@H]2O)[C@H](C(=O)NCCC(F)(F)F)C1`, the IC95 in data set [1] stood at 500 nM; in data set [2] it was 62 nM. In data set [3], the IC50 was found to be 1.6 nM.

For the compound `CC(C)(c1cc2cnccc2o1)N1CCN(C[C@@H](O)C[C@@H](Cc2ccccc2)C(=O)N[C@H]2c3ccccc3OC[C@H]2O)[C@H](C(=O)NC2CCCC2)C1`, the figures for the IC95 in data set [1] and in data set [2] were 31 nM and not above 8 nM, respectively. The IC50 in [3] is 0.37 nM.

On to `CC(C)(c1cc2cnccc2o1)N1CCN(C[C@@H](O)C[C@@H](Cc2ccccc2)C(=O)N[C@H]2c3ccccc3OC[C@H]2O)[C@H](C(=O)Nc2ccccc2)C1`, for which the IC95 in data set [1] is more than 1000 nM; in [2], 250 nM. In data set [3], this compound came in with an IC50 of 13.8 nM.
